Measurements from publication PMC7406636, “In vivo and in silico characterization of apocynin in reducing organ oxidative stress: A pharmacokinetic and pharmacodynamic study” (Pharmacology Research & Perspectives, 2020).
Read-outs that look alike come from different tables or passages of the source.

Tests used:
[1] = Apocynin in organs after 16 weeks in drinking water, HFD mouse model (HPLC-MS/MS); assay type: in vivo; details: male, oral, C57BL/6J mice, HFD 16 weeks, apocynin 5 mmol/L in drinking water
Description: The mouse model of high‐fat diet (HFD‐induced metabolic disorders and accelerated aging was established as described previously. ^8 Littermates of WT and Nox2KO mice (Jackson Laboratory) on a C57BL/6J background at 7 months of age were randomly assigned (n = 6/per group) to a HFD containing 45% kcal fat (Special Diets Services), or to a normal chow diet (NCD) containing 9.3% kcal fat (LabDiet Ltd) for 16 weeks. Apocynin was supplied in drinking water (5 mmol/L) for the treatment group. Body weights were measured weekly. Mice were sacrificed at 11 months of age and organs were harvested for further experiments.
The detection of apocynin in tissue sample was performed as described previously with some modifications. ^17 In brief, apocynin was detected using an Accela HPLC coupled to a linear ion‐trap tandem mass spectrometry (LTQ‐Orbitrap XL; Thermo‐Fisher Scientific) (HPLC‐MS/MS) in the negative ion mode. Phenacetin (500 ng/mL) was used as an internal standard in every vial. A reversed‐phase 50 × 2.1 mm ID, […], 175 Å pore C18 Hypersil Gold column (Thermo Scientific) was used with injection volume set at 5 µL for the separation of apocynin and phenacetin. Calibration curve used for PK analysis was constructed by spiking apocynin in mouse plasma using eight calibrators ranging from 1 to 10000 ng/mL with great reproducibility and R ^2 ≥ 0.996 for subsequent 5 separate experiments on different days. […] Limit of detection for apocynin was set up at signal to noise ratio ≥ 3, ^18 which is 1 ng/mL in our system. The limitation of quantification was set up at signal to noise ratio ≥ 10, which is 10 ng/mL in our system. Orbitrap component was used for the full scan spectra of apocynin and diapocynin.
The HFD study was performed exactly as described previously. ^8 Littermates of WT and Nox2KO mice on a C57BL/6J background (Jackson Laboratory, USA) were bred in our institution from heterozygotes and genotyped. […] Body weights were measured weekly. […] The body weights were recorded and organs were harvested.

[2] = test system: O2·‐ production in tissue homogenates; experiment: O2·- production in organ homogenates by lucigenin-chemiluminescence, HFD mouse model; assay type: in vivo; details: HFD 16 weeks, apocynin 5 mmol/L in drinking water, vs HFD
Protocol: Apocynin was supplied in drinking water (5 mmol/L) for the treatment group. Body weights were measured weekly. Mice were sacrificed at 11 months of age and organs were harvested for further experiments. ROS production was measured using tissue homogenates by three complementary techniques: lucigenin (5 µmol/L)‐chemiluminescence (Molecular Devices); DHE (2 µmol/L) fluorescence on brain tissue sections, and brain tissue lipid peroxidation by malondialdehyde (MDA) assay as described previously. ^5 The specificity of detection of O2·‐ was confirmed by adding tiron (10 mmol/L), a non‐enzymatic O2·‐ scavenger. The enzymatic sources of O2·‐ production were identified using inhibitors targeting nitric oxide synthase (L‐N^G‐Nitro arginine methyl ester, L‐NAME, 100 μmol/L), the mitochondrial complex‐1 enzymes (rotenone, 50 μmol/L), xanthine oxidase (oxypurinol, 250 μmol/L), flavo‐proteins (diphenyleneiodonium, DPI, 20 μmol/L), or superoxide dismutase (SOD) (200 U/mL). The DHE fluorescence was captured using a Nikon fluorescence microscope (Eclipse Ti2‐E). The fluorescence intensity was quantified from at least three random images per section with three sections/per sample. […] Body weights were measured weekly. […] The body weights were recorded and organs were harvested.

[3] = PK simulation and model analysis using Phoenix WinNonlin 8.1 (non-compartmental and compartmental); assay type: in vivo; details: CD1, mouse, plasma; for AUC / clearance / Vd: iv, 5 mg/kg
Protocol: PK parameters simulation was performed using the Phoenix WinNonlin 8.1 software (Certara.com). […] Data collected from sampling time 1‐360 minutes after iv injection were then pooled (n = 3) and tested against various compartmental models for a best fit using Phoenix WinNonlin 8.1 software. Parameters included the Akaike's information criterion (AIC), Bayesian information criteria (BIC) and corrected AIC (AICc) calculated using the equation: AICc = AIC +2 × nParm (nParm + 1)/(nObs − nParm − 1). ^21

[4] = test system: ROS production on brain sections; experiment: In situ ROS production by DHE fluorescence on brain sections after iv injection; assay type: in vivo, mouse; details: brain sections harvested at 15 minutes after iv injection
Protocol: ROS production was measured using tissue homogenates by three complementary techniques: lucigenin (5 µmol/L)‐chemiluminescence (Molecular Devices); DHE (2 µmol/L) fluorescence on brain tissue sections, and brain tissue lipid peroxidation by malondialdehyde (MDA) assay as described previously. ^5 The specificity of detection of O2·‐ was confirmed by adding tiron (10 mmol/L), a non‐enzymatic O2·‐ scavenger. The enzymatic sources of O2·‐ production were identified using inhibitors targeting nitric oxide synthase (L‐N^G‐Nitro arginine methyl ester, L‐NAME, 100 μmol/L), the mitochondrial complex‐1 enzymes (rotenone, 50 μmol/L), xanthine oxidase (oxypurinol, 250 μmol/L), flavo‐proteins (diphenyleneiodonium, DPI, 20 μmol/L), or superoxide dismutase (SOD) (200 U/mL). The DHE fluorescence was captured using a Nikon fluorescence microscope (Eclipse Ti2‐E). The fluorescence intensity was quantified from at least three random images per section with three sections/per sample.

**Q.** Which results are given for `COc1cc(C(C)=O)ccc1O` [Apocynin, 4‐hydroxy‐3‐methoxyacetophenone]?
**A.** concentration at 16 weeks ([1]; brain, read-out: brain apocynin concentration at end of treatment): 5370 ± 1610 ng/g; concentration at 16 weeks ([1]; heart, read-out: heart apocynin concentration at end of treatment): 1800 ± 1490 ng/g; concentration at 16 weeks ([1]; liver, read-out: liver apocynin concentration at end of treatment): 4820 ± 1340 ng/g; effect on HFD-induced ROS production / oxidative stress in brain, liver and heart [2]: significant reductions; effect on HFD-induced ROS production / oxidative stress in brain, liver and heart ([2]; listed as apocynin): reduced significantly; k el ([3]; NCA, iv 5 mg/kg, n = 3, read-out: Kel (elimination rate constant) (converted)): 0.00379 s⁻¹; half-life ([3]; NCA, iv 5 mg/kg, n = 3, read-out: t 1/2 (terminal half-life, plasma) (converted)): 3 min; AUC ([3]; male, 1-CA (one compartmental analysis), 0-6 h, read-out: AUC0‐∞): 681 ng·h/mL; clearance ([3]; male, 1-CA, 0-6 h, read-out: tvCL1 (typical value of compartmental clearance) (converted)): 92.4 mL/min; Vd ([3]; male, 1-CA, 0-6 h, read-out: tvV1 (typical value of compartmental volume of distribution)): 0.531 L; AUC ([3]; male, 2-CA (two compartmental analysis), 0-6 h, read-out: AUC0‐∞): 711 ng·h/mL; clearance ([3]; male, 2-CA, 0-6 h, read-out: tvCL1 (typical value of compartmental clearance) (converted)): 92.3 mL/min; Vd ([3]; male, 2-CA, 0-6 h, read-out: tvV1 (typical value of compartmental volume of distribution)): 0.531 L; AUC ([3]; male, 3-CA (three compartmental analysis), 0-6 h, read-out: AUC0‐∞): 711 ng·h/mL; clearance ([3]; male, 3-CA, 0-6 h, read-out: tvCL1 (typical value of compartmental clearance) (converted)): 92 mL/min; Vd ([3]; male, 3-CA, 0-6 h, read-out: tvV1 (typical value of compartmental volume of distribution)): 0.531 L; AUC ([3]; male, NCA, iv 5 mg/kg, n = 3, read-out: AUC0‐30min): 643 ng·h/mL; AUC ([3]; male, NCA, iv 5 mg/kg, n = 3, read-out: AUC0‐∞): 644 ng·h/mL; clearance ([3]; male, NCA, iv 5 mg/kg, n = 3, read-out: CL (clearance) (converted)): 129 mL/min/kg; Vd ([3]; male, NCA, iv 5 mg/kg, n = 3, read-out: V d (central volume of distribution)): 0.569 L/kg; clearance ([3]; male, NCA, iv 5 mg/kg, read-out: CL (systemic clearance) (converted)): 129 mL/min/kg; C0 ([3]; male, NCA, 0-30 min, iv 5 mg/kg, n = 3, read-out: C 0 (extrapolated plasma concentration at time 0)): 7360 ng/mL; Cmax ([3]; male, NCA, 0-30 min, iv 5 mg/kg, n = 3, read-out: C max (maximum plasma concentration)): 5490 ng/mL; effect on DHE fluorescence (in situ ROS production) [4]: inhibited effectively
